This note sets out measurements from patent US20090143279A1 (priority 2007, published 2009).

Assay [1] relates to mitochondrial membrane potential. The format is cell-based, mouse.
Assay [2] concerns reactive oxygen species. The format is cell-based, mouse.
The subject of assay [3] is OXPHOS gene expression. The format is cell-based, mouse.
Assay [4] has as its system nuOXPHOS transcripts. The format is cell-based, mouse.
Assay [5] has as its system mtOXPHOS transcripts. The format is cell-based, mouse.
Assay [6] relates to cytochrome c. Type of assay: cell-based, mouse.
The test system of assay [7] is C2C12 myotubes.
For assay [8], the system named is cellular dehydrogenase activity.
Where [9] appears, read: normalized composite Z-score vs mock-treated (DMSO) wells, Conc 20 μM.
[10] abbreviates: Conc 20 μM, normalized score vs mock-treated (DMSO) wells.
The mark [11] stands for this setting: Table 4, C2C12 myotubes, 48 h, composite Z-score.
Where [12] appears, read: composite Z-score vs mock-treated (DMSO) wells, Conc 20 μM.
[13] abbreviates: composite Z-score vs DMSO, Conc 20 μM.
Where [14] appears, read: 20 μM, composite Z-score vs DMSO.

Read-outs that look alike come from different tables or passages of the source.

As to `COc1c(-c2ccccc2)oc2c(OC)cccc2c1=O` [3,8-dimethoxyflavone], the ΔΨm in assay [1] (setting [9]) is −0.103. For the same compound, the ROS in assay [2] (setting [9]) stood at 1.553. This compound also gave a GE-HTS in assay [3] (setting [9]) of 0.399. Besides, the nucOX in assay [4] (setting [9]) came out at 0.315. This compound also showed a mitoOX in assay [5] (setting [9]) of 0.492. Further, in assay [6] (setting [9]), the cyt c was determined as 0.361. Further, the Viability in assay [7] (setting [9]) was determined as 0.930. In assay [8] (setting [9]), the MTT is given as −0.252.
Consider `COc1ccc(C(=O)c2ccc(O)cc2)c(O)c1O` [2,3,4′-trihydroxy-4-methoxybenzophenone], for which the ΔΨm in assay [1] (setting [9]) is recorded as −1.356. The same compound yielded an ROS in assay [2] (setting [9]) of −0.472. This compound gave a GE-HTS in assay [3] (setting [9]) of −1.557. In assay [4] (setting [9]), this compound registered a nucOX of −1.472. The mitoOX in assay [5] (setting [9]) was −1.476. In assay [6] (setting [9]), this compound came in with a cyt c of 0.378. Moreover, in assay [7] (setting [9]), the Viability is given as −0.403. The compound further registered an MTT in assay [8] (setting [9]) of −0.475.
`Cc1c(O)c(C(=O)CC(C)C)c2oc3c(C(=O)CC(C)C)c(O)c(C)c(O)c3c2c1O` [rhodomyrtoxin]: in assay [1] (setting [10]), the “ΔΨm (composite Z-score)” value worked out at 2.834. The “ROS (composite Z-score)” value in assay [2] (setting [10]) is recorded as 0.397. For the same compound, the “GE-HTS (composite Z-score)” value in assay [3] (setting [10]) worked out at 0.357. In addition, the “nucOX (composite Z-score)” value in assay [4] (setting [10]) stood at 0.412. For the same compound, in assay [5] (setting [10]), the “mitoOX (composite Z-score)” value stood at 0.206. In addition, in assay [6] (setting [10]), the “cyt c (composite Z-score)” value is −1.200. In addition, the “Viability (composite Z-score)” value in assay [7] (setting [10]) is listed as −0.636. Moreover, the “MTT (composite Z-score)” value in assay [8] (setting [10]) turned out to be 2.413.
For the compound `COc1cc2c(cc1OC)C1C(=O)c3c(cc4c(c3O)C=CC(C)(C)O4)OC1CO2` (stereo not drawn) [beta-toxicarol, reference compound], the ΔΨm in assay [1] (Table 4, C2C12 myotubes, 48 h, JC-1, composite Z-score) was determined as 0.899; in assay [1] (setting [9]) it was 0.899. For the same compound, the ROS in assay [2] (setting [11]) and in assay [2] (setting [9]) was −0.188 throughout. For the same compound, the GE-HTS in assay [3] (setting [9]) is given as −1.508. This compound also came in with a nucOX in assay [4] (setting [9]) of −1.773. The compound also had a mitoOX in assay [5] (setting [9]) of −0.627. The compound further came in with a cyt c in assay [6] (setting [9]) of −0.239. The Viability in assay [7] (setting [11]) and in assay [7] (setting [9]) was 0.672 throughout. For the same compound, the MTT in assay [8] (setting [11]) and in assay [8] (setting [9]) was −1.498 each time.
As for `C=C(C)c1cc2cc(C(C)=O)c(O)cc2o1` [euparin], in assay [1] (setting [12]), the ΔΨm was −0.010. The ROS in assay [2] (setting [12]) is reported as 0.795. This compound had a GE-HTS in assay [3] (setting [12]) of 1.120. Further, the nucOX in assay [4] (setting [12]) is reported as 1.293. Besides, the mitoOX in assay [5] (setting [12]) turned out to be 0.484. Also, in assay [6] (setting [12]), the cyt c came to 0.419. In assay [7] (setting [12]), the Viability worked out at 0.021. The compound also had an MTT in assay [8] (setting [12]) of −0.912.
Consider `CO[C@H]1C[C@H](O[C@H]2[C@H](C)[C@@H](O[C@@H]3O[C@H](C)C[C@H](N(C)C)[C@H]3OC(C)=O)[C@@H](C)C[C@@]3(CO3)C(=O)[C@H](C)[C@@H](OC(C)=O)[C@@H](C)[C@@H](C)OC(=O)[C@@H]2C)O[C@@H](C)[C@@H]1OC(C)=O` [troleandomycin], for which, in assay [1] (setting [13]), the ΔΨm is −0.780. The same compound registered an ROS in assay [2] (setting [13]) of 0.099. In addition, in assay [3] (setting [13]), the GE-HTS is recorded as −1.234. The same compound gave a nucOX in assay [4] (setting [13]) of −1.277. Besides, the mitoOX in assay [5] (setting [13]) is −0.905. The cyt c in assay [6] (setting [13]) is reported as −0.063. Also, the Viability in assay [7] (setting [13]) is reported as −1.520. The MTT in assay [8] (setting [13]) was −1.250.
In turn, `CCN(CC)Cc1cc(Nc2ccnc3cc(Cl)ccc23)ccc1O` [amodiaquine] displayed a ΔΨm in assay [1] (setting [14]) of −1.178. The same compound registered an ROS in assay [2] (setting [14]) of 0.877. The compound also came in with a GE-HTS in assay [3] (setting [14]) of 0.398. In assay [4] (setting [14]), this compound registered a nucOX of 0.317. This compound also yielded a mitoOX in assay [5] (setting [14]) of 0.481. This compound also displayed a cyt c in assay [6] (setting [14]) of −0.008. This compound also had a Viability in assay [7] (setting [14]) of −0.547. In addition, the MTT in assay [8] (setting [14]) was −1.008.
